Assay results: US7790742B2, “Substituted 4-phenyltetrahydroisoquinolines, pharmaceutical compositions thereof, methods for their preparation and therapeutic use” (Sanofi-Aventis Deutschland GmbH, priority 2004, dated 2010)
pIC50: −log10 of the molar value.

Key:
[1] = target: T1, NHE3 (Homo sapiens, UniProt P48764); experiment: Determination of the NHE-inhibitory effect (recovery of intracellular pH after acidification, BCECF); assay type: cell-based; settings: BCECF fluorescence, NHE subtype not given
T1 construct: host or cells: cells, not specified
T1 sequence (P48764 26-834): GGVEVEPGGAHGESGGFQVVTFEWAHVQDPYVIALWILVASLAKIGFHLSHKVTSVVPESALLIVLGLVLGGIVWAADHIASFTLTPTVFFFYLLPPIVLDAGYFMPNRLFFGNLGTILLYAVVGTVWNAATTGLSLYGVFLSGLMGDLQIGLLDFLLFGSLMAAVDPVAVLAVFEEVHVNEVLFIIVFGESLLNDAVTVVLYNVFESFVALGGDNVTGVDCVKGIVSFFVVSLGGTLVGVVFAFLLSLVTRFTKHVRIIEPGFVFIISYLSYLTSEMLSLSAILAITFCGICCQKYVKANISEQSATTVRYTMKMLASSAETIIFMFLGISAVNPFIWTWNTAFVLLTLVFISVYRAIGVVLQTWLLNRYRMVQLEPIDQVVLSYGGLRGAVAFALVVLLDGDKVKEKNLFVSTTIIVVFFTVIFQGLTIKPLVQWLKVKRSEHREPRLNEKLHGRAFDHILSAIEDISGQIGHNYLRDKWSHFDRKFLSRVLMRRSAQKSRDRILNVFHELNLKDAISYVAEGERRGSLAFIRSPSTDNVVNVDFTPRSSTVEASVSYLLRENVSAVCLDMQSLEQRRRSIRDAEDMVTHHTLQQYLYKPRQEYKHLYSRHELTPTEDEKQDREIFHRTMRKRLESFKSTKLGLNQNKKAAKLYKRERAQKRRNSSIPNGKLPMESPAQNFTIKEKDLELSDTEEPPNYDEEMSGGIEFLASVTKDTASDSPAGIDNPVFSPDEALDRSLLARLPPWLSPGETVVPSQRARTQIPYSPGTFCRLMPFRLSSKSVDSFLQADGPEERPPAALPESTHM
Experimental: [drawing 82] was obtained in analogy to the method indicated in Example 16 from 6,8-dichloro-2-methyl-4(R)-[2N-(2-ethoxy-3,4-dioxocyclobuten-1-yl)amino]-phenyl-1,2,3,4-tetrahydroisoquinoline (Example 6) and methylamine. Crystalline solid, m.p. 265° C. Pharmacological Data: Assay: Determination of the NHE-Inhibitory Effect
In this assay, the recovery of the intracellular pH (pHj) after an acidification which occurs even under bicarbonate-free conditions with functional NHE was determined. To this end, the pHj was determined using the pH-sensitive fluorescent dye BCECF (calbiochem, the precursor BCECF-AM was employed). The cells were initially loaded with BCECF. The BCECF fluorescence was determined in a ratio fluorescence spectrometer (Photon Technology International, South Brunswick, N.J., USA) with excitation wavelengths of 505 and 440 nm and an emission wavelength of 535 nm and converted into the pHj using calibration plots. The cells had been incubated in NH4Cl buffer (pH 7.4) for the BCECF loading (NH4Cl buffer: 115 mM NaCl, 20 mM NH4Cl, 5 mM KCl, 1 mM CaCl2, 1 mM MgSO4, 20 mM Hepes, 5 mM glucose, 1 mg/ml BSA; a pH of 7.4 was adjusted with 1 M NaOH). The intracellular acidification was induced by adding 975 μl of an NH4Cl-free buffer (see below) to 25 μl aliquots of the cells incubated in NH4Cl buffer. The subsequent rate of pH recovery was recorded for two minutes with NHE1, five minutes with NHE2 and three minutes with NHE3. To calculate the inhibitory power of the tested substances, the cells were initially investigated in buffers with which there was complete or absolutely no pH recovery. For complete pH recovery (100%), the cells were incubated in Na^+-containing buffer (133.8 mM NaCl, 4.7 mM KCl, 1.25 mM CaCl2, 1.25 mM MgCl2, 0.97 mM Na2HPO4, 0.23 mM NaH2PO4, 5 mM Hepes, 5 mM glucose, a pH of 7.0 was adjusted with 1 M NaOH). To determine the 0% value, the cells were incubated in an Na^+-free buffer (133.8 mM choline chloride, 4.7 mM KCl, 1.25 mM CaCl2, 1.25 mM MgCl2, 0.97 mM K2HPO4, 0.23 mM KH2PO4, 5 mM Hepes, 5 mM glucose, a pH of 7.0 was adjusted with 1 M NaOH). The substances to be tested were made up in the Na^+-containing buffer. The recovery of the intracellular pH at each tested concentration of a substance was expressed as a percentage of the maximum recovery. The IC50 of the respective substance for the individual NHE subtypes was calculated from the percentages of pH recovery using the Sigma Plot program.

Row | SMILES | pIC50 [1] | melting point
1 | CN1Cc2c(Cl)cc(Cl)cc2C(c2ccc(Nc3c(N(C)C)c(=O)c3=O)cc2)C1 (stereo not drawn) [Example 18, 6,8-dichloro-2-methyl-4-[4N-(2-dimethylamino-3,4-dioxocyclobuten-1-yl)amino]phenyl-1,2,3,4-tetrahydroisoquinoline] | 6.59 | 208 to 214 °C
2 | CCN(CC)c1c(Nc2ccc(C3CN(C)Cc4c(Cl)cc(Cl)cc43)cc2)c(=O)c1=O (stereo not drawn) [Example 19, 6,8-dichloro-2-methyl-4-[4N-(2-diethylamino-3,4-dioxocyclobuten-1-yl)amino]phenyl-1,2,3,4-tetrahydroisoquinoline] | 5.94 | 275 to 280 °C
3 | CCCN(CC1CC1)c1c(Nc2ccc(C3CN(C)Cc4c(Cl)cc(Cl)cc43)cc2)c(=O)c1=O (stereo not drawn) [Example 29, 6,8-dichloro-2-methyl-4-[4N-(2-(N-cyclopropylmethyl-N-propylamino)-3,4-dioxocyclobuten-1-yl)amino]phenyl-1,2,3,4-tetrahydro-isoquinoline] | 5.15 | 134 to 144 °C
4 | CC(C)N(C)c1c(Nc2cccc([C@@H]3CN(C)Cc4c(Cl)cc(Cl)cc43)c2)c(=O)c1=O [Example 31] | 6.89 | 135 to 150 °C
5 | CN1Cc2c(Cl)cc(Cl)cc2[C@H](c2cccc(Nc3c(N4CCCC4)c(=O)c3=O)c2)C1 [Example 34, 6,8-dichloro-2-methyl-4(S)-[3N-(2-N-pyrrolidino-3,4-dioxocyclobuten-1-yl)amino]phenyl-1,2,3,4-tetrahydroisoquinoline] | 7.28 | 138 to 143 °C
6 | CN1Cc2c(Cl)cc(Cl)cc2[C@H](c2ccc(Nc3c(N4CCCC4)c(=O)c3=O)cc2)C1 [Example 36, 6,8-dichloro-2-methyl-4(S)-[4N-(2-N-pyrrolidino-3,4-dioxocyclobuten-1-yl)amino]phenyl-1,2,3,4-tetrahydroisoquinoline] | 6.64 | 264 to 270 °C
7 | CN1Cc2c(Cl)cc(Cl)cc2C(c2ccc(Nc3c(N(C)Cc4ccccc4)c(=O)c3=O)cc2)C1 (stereo not drawn) [Example 38] | 5.10 | 158 to 162 °C
8 | CCCN(CCC)c1c(Nc2ccccc2[C@@H]2CN(C)Cc3c(Cl)cc(Cl)cc32)c(=O)c1=O [Example 40] | 6.62 | 190 to 194 °C

Continued by rising pIC50 [1], values first:

Row | pIC50 [1] | melting point | SMILES
9 | 5.55 | > 310 °C | CC(C)CN(C)c1c(Nc2ccc(C3CN(C)Cc4c(Cl)cc(Cl)cc43)cc2)c(=O)c1=O (stereo not drawn) [Example 25, 6,8-dichloro-2-methyl-4-[4N-(2-(N-isobutyl-N-methylamino)-3,4-dioxocyclobuten-1-yl)amino]phenyl-1,2,3,4-tetrahydroisoquinoline]
10 | 5.60 |  | CCCN(CCC)c1c(Nc2ccc(C3CN(C)Cc4c(Cl)cc(Cl)cc43)cc2)c(=O)c1=O (stereo not drawn) [Example 24, 6,8-dichloro-2-methyl-4-[4N-(2-dipropylamino-3,4-dioxocyclobuten-1-yl)amino]phenyl-1,2,3,4-tetrahydroisoquinoline]
11 | 5.77 | 206 to 210 °C | COCCN(C)c1c(Nc2ccc(C3CN(C)Cc4c(Cl)cc(Cl)cc43)cc2)c(=O)c1=O (stereo not drawn) [Example 26]
12 | 5.82 | 246 to 250 °C | CCN(CC)c1c(Nc2ccccc2[C@@H]2CN(C)Cc3c(Cl)cc(Cl)cc32)c(=O)c1=O [Example 39, 6,8-dichloro-2-methyl-4(R)-[2N-(2-diethylamino-3,4-dioxocyclobuten-1-yl)amino]phenyl-1,2,3,4-tetrahydroisoquinoline]
13 | 6.07 | 236 to 240 °C | CCCN(C)c1c(Nc2ccccc2[C@@H]2CN(C)Cc3c(Cl)cc(Cl)cc32)c(=O)c1=O [Example 37]
14 | 6.17 | 160 to 190 °C | CCN(c1c(Nc2ccc([C@@H]3CN(C)Cc4c(Cl)cc(Cl)cc43)cc2)c(=O)c1=O)C(C)C [Example 32]
15 | 6.59 | 165 to 175 °C (dec.) | CC(C)N(C)c1c(Nc2ccc([C@@H]3CN(C)Cc4c(Cl)cc(Cl)cc43)cc2)c(=O)c1=O [Example 28, 6,8-dichloro-2-methyl-4(S)-[4N-(2-(N-isopropyl-N-methylamino)-3,4-dioxocylcobuten-1-yl)amino]phenyl-1,2,3,4-tetrahydroisoquinoline]
16 | 6.68 | 220 to 225 °C | CCN(CC)c1c(Nc2ccc([C@@H]3CN(C)Cc4c(Cl)cc(Cl)cc43)cc2)c(=O)c1=O [Example 27, 6,8-dichloro-2-methyl-4(S)-[4N-(2-diethylamino-3,4-dioxocyclobuten-1-yl)amino]phenyl-1,2,3,4-tetrahydroisoquinoline]
17 | 6.82 | 210 to 214 °C | CC(C)N(C)c1c(Nc2ccccc2[C@@H]2CN(C)Cc3c(Cl)cc(Cl)cc32)c(=O)c1=O [Example 42]
18 | 6.85 | 125 to 135 °C | CCN(CC)c1c(Nc2cccc([C@@H]3CN(C)Cc4c(Cl)cc(Cl)cc43)c2)c(=O)c1=O [Example 30]
19 | 6.96 | 220 to 224 °C | CN1Cc2c(Cl)cc(Cl)cc2[C@H](c2ccccc2Nc2c(N3CCCC3)c(=O)c2=O)C1 [Example 41, 6,8-dichloro-2-methyl-4(R)-[2N-(2-N-pyrrolidino-3,4-dioxocyclobuten-1-yl)amino]phenyl-1,2,3,4-tetrahydroisoquinoline]
20 | 7.51 | 135 to 140 °C | CCCN(C)c1c(Nc2cccc([C@@H]3CN(C)Cc4c(Cl)cc(Cl)cc43)c2)c(=O)c1=O [Example 33]
